Reference: article PMC5069304 (Clinical Pharmacokinetics, 2016)

How the values were obtained:
[1] = Population pharmacokinetic analysis of plasma liraglutide; type: in vivo, human
[2] = Exposure assessment for dose proportionality, phase II dose-finding trial; type: in vivo, human
[3] = 60 kg subject vs reference subject weighing 100 kg
[4] = 234 kg subject vs reference subject weighing 100 kg

- CL/F lower than in reference subject [1, 3]: 29%
- liraglutide exposure higher than in reference subject [1, 3]: 41%
- CL/F higher than in reference subject [1, 4]: 78%
- liraglutide exposure lower than in reference subject [1, 4]: 44%
- liraglutide exposure lower in subjects with T2DM than in normoglycaemic subjects ([1]; confounded by trial (all T2DM subjects from Trial 2)): 16%
- higher exposure in Trial 1 than in Trial 2 ([1]; liraglutide 3.0 mg): 29%
- geometric mean of the individual apparent clearance estimates ([2]; Trial 3): 0.93 L/h
Compound: CCCCCCCCCCCCCCCC(=O)N[C@@H](CCC(=O)NCCCC[C@H](NC(=O)[C@H](C)NC(=O)[C@H](C)NC(=O)[C@H](CCC(N)=O)NC(=O)CNC(=O)[C@H](CCC(=O)O)NC(=O)[C@H](CC(C)C)NC(=O)[C@H](Cc1ccc(O)cc1)NC(=O)[C@H](CO)NC(=O)[C@H](CO)NC(=O)[C@@H](NC(=O)[C@H](CC(=O)O)NC(=O)[C@H](CO)NC(=O)[C@@H](NC(=O)[C@H](Cc1ccccc1)NC(=O)[C@@H](NC(=O)CNC(=O)[C@H](CCC(=O)O)NC(=O)[C@H](C)NC(=O)[C@@H](N)Cc1cnc[nH]1)[C@@H](C)O)[C@@H](C)O)C(C)C)C(=O)N[C@@H](CCC(=O)O)C(=O)N[C@@H](Cc1ccccc1)C(=O)N[C@H](C(=O)N[C@@H](C)C(=O)N[C@@H](Cc1c[nH]c2ccccc12)C(=O)N[C@@H](CC(C)C)C(=O)N[C@H](C(=O)N[C@@H](CCCNC(=N)N)C(=O)NCC(=O)N[C@@H](CCCNC(=N)N)C(=O)NCC(=O)O)C(C)C)[C@@H](C)CC)C(=O)O [liraglutide, Liraglutide]
- liraglutide exposure lower in males than in females ([1]; comparable body weight): 24%
- liraglutide exposure higher in females than males ([1]; same/comparable body weight): 32%
- dose proportionality of model-derived AUC by dose ([2]; obese individuals, 1.2, 1.8, 2.4, 3.0 mg once daily, week 20): supported dose proportionality of liraglutide up to and including 3.0 mg
